Assay results: US20210024507A1, “Compounds” (Step Pharma S.A.S., priority 2018, published 2021)

molecular target: T1, human CTPS1 (Homo sapiens, UniProt P17812); experiment: Human CTPS1 enzyme inhibition (ADP-Glo Max assay); type: biochemical; settings: human full length CTPS1, 25° C., read-out: CTPS1 (Human CTPS1 Enzyme Inhibition, IC50 grouped by potency range)
T1 construct: purchased Proteros biostructures GmbH
T1 sequence (P17812 1-591): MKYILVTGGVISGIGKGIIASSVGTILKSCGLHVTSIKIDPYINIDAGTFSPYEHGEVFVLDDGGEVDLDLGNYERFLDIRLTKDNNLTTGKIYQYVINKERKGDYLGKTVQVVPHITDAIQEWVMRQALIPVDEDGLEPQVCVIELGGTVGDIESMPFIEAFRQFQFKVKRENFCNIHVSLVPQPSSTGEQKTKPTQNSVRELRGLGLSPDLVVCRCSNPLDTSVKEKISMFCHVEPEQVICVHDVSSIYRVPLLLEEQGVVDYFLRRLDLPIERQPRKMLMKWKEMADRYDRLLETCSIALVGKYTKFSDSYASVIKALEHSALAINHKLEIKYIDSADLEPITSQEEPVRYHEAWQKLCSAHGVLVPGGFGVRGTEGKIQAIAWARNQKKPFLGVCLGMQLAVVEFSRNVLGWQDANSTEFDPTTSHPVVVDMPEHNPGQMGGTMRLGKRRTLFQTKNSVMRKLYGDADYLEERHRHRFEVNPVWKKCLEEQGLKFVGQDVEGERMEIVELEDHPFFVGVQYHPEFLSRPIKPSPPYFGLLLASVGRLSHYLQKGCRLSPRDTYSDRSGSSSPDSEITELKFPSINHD
Experimental: The enzyme inhibitory activities of compounds invented against the target of interest were determined using the ADP-GIoTM Max assay (Promega, UK). Assays for human CTPS1 were performed in lx assay buffer containing 50mM Tris, 10mM MgCl2, 0.01% Tween-20, pH to 8.0 accordingly. Finally, immediately before use, L-cysteine was added to the lx assay buffer to a final concentration of 2mM. All reagents are from Sigma-Aldrich unless specified otherwise. Human full length active C-terminal FLAG-Hiss-tag CTPS1 (UniProtKB - P17812, CTPS[1-591]-[…]) was obtained from Proteros biostructures GmbH.
Assay Procedure 3× human CTPS1 protein was prepared in lx assay buffer to the final working protein concentration required for the reaction. A 2uL volume per well of 3x human CTPS1 protein was mixed with 2uL per well of 3× test compound (compound prepared in lx assay buffer to an appropriate final 3× compound concentration respective to the concentration response curve designed for the compounds under test) for 10 minutes at 25° C. The enzymatic reaction was then initiated by addition of a 2uL per well volume of a pre-mixed substrate mix (UltraPure ATP from ADP-GIo™ Max kit (0.31mM), GTP (0.034mM), UTP (0.48mM) and L-glutamine (0.186mM)) and the mixture was incubated for an appropriate amount of time within the determined linear phase of the reaction at 25° C. under sealed plate conditions with constant agitation at 500 revolutions per minute (rpm). ADP-GIo™ Max reagent was added for 60 minutes ([…] per well) and subsequently ADP-GIo™ Max development reagent was added for 60 minutes (12uL per well) prior to signal detection in a microplate reader (EnVision® Multilabel Reader, Perkin Elmer). Following each reagent addition over the course of the assay, assay plates were pulse centrifuged for 30 seconds at 500rpm.
In all cases, the enzyme converts ATP to ADP and the ADP-GIo™ Max reagent subsequently depletes any remaining endogenous ATP in the reaction system. The ADP-GIo™ Max detection reagent converts the ADP that has been enzymatically produced back into ATP and using ATP as a substrate together with luciferin for the enzyme luciferase, light is generated which produces a detectable luminescence. […] The percentage inhibition produced by each concentration of compound was calculated using the equation shown below: […]
(§1) Percentage inhibition was then plotted against compound concentration, and the 50% inhibitory concentration (IC50) was determined from the resultant concentration-response curve.

Compound | IC50
CCC(NC(=O)c1ccc(-c2cncc(C(F)(F)F)c2)cc1F)c1ccnc(NS(=O)(=O)C2CC2)n1 (stereo not shown) [P211, N-(1-(2-(cyclopropanesulfonamido)pyrimidin-4-yl)propyl)-2-fluoro-4-(5-(trifluoromethyl)pyridin-3-yl)benzamide] | 100 to 1000 nM
CCC(NC(=O)c1ccc(-c2cncc(Cl)c2)cc1F)c1ccnc(NS(=O)(=O)C2CC2)n1 (stereo not shown) [P212, 4-(5-chloropyridin-3-yl)-N-(1-(2-(cyclopropanesulfonamido)pyrimidin-4-yl)propyl)-2-fluorobenzamide] | 100 to 1000 nM
CCC(NC(=O)c1ccc(-c2cncc(C(F)(F)F)c2)cc1)c1ccnc(NS(=O)(=O)C2CC2)n1 (stereo not shown) [P213, N-(1-(2-(cyclopropanesulfonamido)pyrimidin-4-yl)propyl)-4-(5-(trifluoromethyl)pyridin-3-yl)benzamide] | 100 to 1000 nM
CCC(NC(=O)c1ccc(-c2cncc(Cl)c2)cc1)c1ccnc(NS(=O)(=O)C2CC2)n1 (stereo not shown) [P214, 4-(5-chloropyridin-3-yl)-N-(1-(2-(cyclopropanesulfonamido)pyrimidin-4-yl)propyl)benzamide] | 100 to 1000 nM
CCC(NC(=O)c1ccc(-c2cncc(C(F)(F)F)n2)cc1)c1ccnc(NS(=O)(=O)C2CC2)n1 (stereo not shown) [P217, N-(1-(2-(cyclopropanesulfonamido)pyrimidin-4-yl)propyl)-4-(6-(trifluoromethyl)pyrazin-2-yl)benzamide] | 100 to 1000 nM
CCOc1cncc(-c2ccc(C(=O)NC(C)(CC)c3ccnc(NS(=O)(=O)C4CC4)n3)c(F)c2)n1 (stereo not shown) [P220, N-(2-(2-(cyclopropanesulfonamido)pyrimidin-4-yl)butan-2-yl)-4-(6-ethoxypyrazin-2-yl)-2-fluorobenzamide] | 100 to 1000 nM

Other lines, results leading:

IC50 | Compound
≤ 100 nM | CCOc1cncc(-c2ccc(NC(=O)C(CC)c3nccc(NS(=O)(=O)C4CC4)n3)nc2)n1 (stereo not shown) [P208, 2-(4-(cyclopropanesulfonamido)pyrimidin-2-yl)-N-(5-(6-ethoxypyrazin-2-yl)pyridin-2-yl)butanamide]
100 to 1000 nM | CCOc1cncc(-c2ccc(C(=O)NC(CC)c3ccnc(NS(=O)(=O)C4CC4)n3)nc2)n1 (stereo not shown) [P210, N-(1-(2-(cyclopropanesulfonamido)pyrimidin-4-yl)propyl)-5-(6-ethoxypyrazin-2-yl)picolinamide]
100 to 1000 nM | CCOc1cncc(-c2ccc(C(=O)NC(CC)c3ccnc(NS(=O)(=O)C4CC4)n3)c(C(F)(F)F)c2)n1 (stereo not shown) [P215, N-(1-(2-(cyclopropanesulfonamido)pyrimidin-4-yl)propyl)-4-(6-ethoxypyrazin-2-yl)-2-(trifluoromethyl)benzamide]
≤ 100 nM | CCC(NC(=O)c1ccc(-c2cncc(OC(C)C)n2)cc1)c1ccnc(NS(=O)(=O)C2CC2)n1 (stereo not shown) [P218, N-(1-(2-(cyclopropanesulfonamido)pyrimidin-4-yl)propyl)-4-(6-isopropoxypyrazin-2-yl)benzamide]
100 to 1000 nM | CCOc1cncc(-c2ccc(C(=O)NC(CC)c3ccnc(NS(=O)(=O)C4CC4)n3)cc2)n1 (stereo not shown) [P219, N-(1-(2-(cyclopropanesulfonamido)pyrimidin-4-yl)propyl)-4-(6-ethoxypyrazin-2-yl)benzamide]
100 to 1000 nM | CCOc1cncc(-c2ccc(C(=O)NC(CC)c3cncc(NS(=O)(=O)C4CC4)n3)c(F)c2)n1 (stereo not shown) [P223, N-(1-(6-(cyclopropanesulfonamido)pyrazin-2-yl)propyl)-4-(6-ethoxypyrazin-2-yl)-2-fluorobenzamide]

system: human CTPS1; experiment: RapidFire/MS-based enzyme selectivity assay, human CTPS1; type: biochemical; settings: calculated from the CTPS1 and CTPS2 IC50 values
Experimental: The enzyme inhibitory activities against each target isoform of interest may be determined for the compounds of the invention using an optimised RapidFire high-throughput mass spectrometry (RF/MS) assay format. RF/MS assays for both human CTPS1 and CTPS2 may be performed in assay buffer consisting of 50mM HEPES (Merck), 20mM MgCl2, 5mM KCI, 1mM DTT, 0.01% Tween-20, pH to 8.0 accordingly. Human full-length active C-terminal FLAG-His-tag CTPS1 (UniProtKB - P17812, CTPS[1-591]-[…]) may be obtained from Proteros biostructures GmbH. Human full length active C-terminal FLAG-His-Avi tagged CTPS2 (UniProtKB-Q9NRF8, CTPS2 [1-586]- […]) may be obtained from Harker Bio.
Human CTPS (1 or 2) protein may be prepared in lx assay buffer to the final working protein concentration required for the reaction. A 2uL volume per well of 2× CTPS (1 or 2) protein may be mixed with 40nL of compound using acoustic (ECHO) delivery and incubated for 10 minutes at 25° C. Each isoform enzymatic reaction may be subsequently initiated by addition of 2uL per well of a 2× substrate mix in assay buffer. For hCTPS1: ATP (0.3mM), UTP (0.2mM), GTP (0.07mM) and L-glutamine (0.1mM). For hCTPS2: ATP (0.1mM), UTP (0.04mM), GTP (0.03mM) and L-glutamine (0.1mM). Each mixture may be incubated for an appropriate amount of time per isoform within the determined linear phase of the reaction at 25° C. A 60uL volume of stop solution (1% formic acid with 0.5uM ^13C9-^15N3-CTP in H2O) may be added and the plate immediately heat-sealed and centrifuged for 10 minutes at 4,000rpm. Following centrifugation, plates may be loaded onto the Agilent RapidFire microfluidic solid phase extraction system coupled to an AP14000 triple quadrupole mass spectrometer (RF/MS) for analysis.
In all cases, the enzyme converts UTP to CTP. Highly specific and sensitive multiple reaction monitoring (MRM) MS methods may be optimised for the detection of the enzymatic reaction product, CTP, and the stable isotope labelled product standard ^13C9-^15N3-CTP. Readout for data analysis may be calculated as the ratio between the peak area of the product CTP and the internal standard ^13C9-^15N3-CTP. For data reporting, the following equation may be used:
[formula] (R=ratio/readout, P=product signal area, IS=internal standard signal area)
For each screening plate, the means of the negative (DMSO) and positive control values were used for the calculation of the respective assay window (S/B) and Z′ values. The median of the respective control values was used for calculation of percent inhibition according to the following equation:
[formula] (I=Inhibition, Rneg=median of negative control readout values, Rpos=median of positive control readout values, Rsample=sample readout value)
as §1
Fold selectivity between CTPS1 and CTPS2 was subsequently calculated according to the following equation: […]

Selectivity (fold selectivity between CTPS1 and CTPS2) | Compound
+++ (>60 fold (+++)) | CCOc1cncc(-c2ccc(NC(=O)C(C)(OC)c3cncc(NS(=O)(=O)C4CC4)n3)nc2)n1 (single isomer, unassigned) [P205a, 2-(6-(cyclopropanesulfonamido)pyrazin-2-yl)-N-(5-(6-ethoxypyrazin-2-yl)pyridin-2-yl)-2-methoxypropanamide]
++ (>30-60 fold (++)) | CCOc1cncc(-c2ccc(NC(=O)C(C)(OC)c3cncc(NS(=O)(=O)C4CC4)n3)nc2)n1 (single isomer, unassigned) [P205b, 2-(6-(cyclopropanesulfonamido)pyrazin-2-yl)-N-(5-(6-ethoxypyrazin-2-yl)pyridin-2-yl)-2-methoxypropanamide]
+++ (>60 fold (+++)) | CCOc1cncc(-c2ccc(NC(=O)C3(c4ccnc(NS(=O)(=O)C5CC5)n4)CCCC3)cc2)n1 [P2, 1-(2-(Cyclopropanesulfonamido)pyrimidin-4-yl)-N-(4-(6-ethoxypyrazin-2-yl)phenyl)cyclopentanecarboxamide]
+++ (>60 fold (+++)) | CC(C)Oc1cncc(-c2ccc(NC(=O)C(C)(C)c3ccnc(NS(=O)(=O)C4CC4)n3)nc2)n1 [P9, 2-(2-(cyclopropanesulfonamido)pyrimidin-4-yl)-N-(5-(6-isopropoxypyrazin-2-yl)pyridin-2-yl)-2-methylpropanamide]
++ (>30-60 fold (++)) | CC(C)Oc1cncc(-c2ccc(NC(=O)Cc3ccnc(NS(=O)(=O)C4CC4)n3)c(F)c2)n1 [P12, 2-(2-(cyclopropanesulfonamido)pyrimidin-4-yl)-N-(2-fluoro-4-(6-isopropoxypyrazin-2-yl)phenyl)acetamide]
++ (>30-60 fold (++)) | O=C(Cc1ccnc(NS(=O)(=O)C2CC2)n1)Nc1ccc(-c2cccnc2)cc1 [P16, 2-(2-(cyclopropanesulfonamido)pyrimidin-4-yl)-N-(4-(pyridin-3-yl)phenyl)acetamide]
++ (>30-60 fold (++)) | CCOc1cncc(-c2ccc(NC(=O)Cc3ccnc(NS(=O)(=O)C4CC4)n3)cc2)n1 [P18, 2-(2-(cyclopropanesulfonamido)pyrimidin-4-yl)-N-(4-(6-ethoxypyrazin-2-yl)phenyl)acetamide]
